Test results taken from PubChem BioAssay AID1259407 (Chemical Carcinogenesis Research Information System (CCRIS), 2018).
Calls of active or inactive are those of the source. How the calls were made is not given here.

System: CCRIS mutagenicity, Ames/micronucleus/aberration tests
Assay: CCRIS mutagenicity studies

Measured: mutagenic call

CCN(CC)N=O
inactive: Test System: AMES SALMONELLA TYPHIMURIUM, Strain/Indicator: TA97, Metabolic Activation: NONE, Method: PREINCUBATION inactive; negative | Test System: AMES SALMONELLA TYPHIMURIUM, Strain/Indicator: TA97, Metabolic Activation: RAT LIVER S-9, AROCLOR, Method: PREINCUBATION inactive; negative | Test System: AMES SALMONELLA TYPHIMURIUM, Strain/Indicator: TA98, Metabolic Activation: RAT, LIVER, S-9, AROCLOR 1254 (30%), Method: PREINCUBATION inactive; negative | Test System: AMES SALMONELLA TYPHIMURIUM, Strain/Indicator: TA98NR, Metabolic Activation: NONE, Method: PREINCUBATION inactive; negative | Test System: AMES SALMONELLA TYPHIMURIUM, Strain/Indicator: TA100, Metabolic Activation: MOUSE, KIDNEY, S-9, PHENETHYL ISOTHIOCYANATE, Method: PREINCUBATION inactive; negative | Test System: AMES SALMONELLA TYPHIMURIUM, Strain/Indicator: TA100, Metabolic Activation: MOUSE, LIVER, S-9, PHENETHYL ISOTHIOCYANATE, Method: PREINCUBATION inactive; negative | Test System: AMES SALMONELLA TYPHIMURIUM, Strain/Indicator: TA100, Metabolic Activation: MOUSE, LUNG, S-9, PHENETHYL ISOTHIOCYANATE, Method: PREINCUBATION inactive; negative | Test System: AMES SALMONELLA TYPHIMURIUM, Strain/Indicator: TA100, Metabolic Activation: MOUSE, LUNG, S-9, Method: PREINCUBATION inactive; negative | Test System: AMES SALMONELLA TYPHIMURIUM, Strain/Indicator: TA100, Metabolic Activation: NONE, Method: STANDARD PLATE inactive; negative | Test System: AMES SALMONELLA TYPHIMURIUM, Strain/Indicator: TA100, Metabolic Activation: RABBIT, LIVER, S-9, Method: STANDARD PLATE inactive; negative | Test System: AMES SALMONELLA TYPHIMURIUM, Strain/Indicator: TA100, Metabolic Activation: RABBIT, LUNG, S-9, Method: STANDARD PLATE inactive; negative | Test System: AMES SALMONELLA TYPHIMURIUM, Strain/Indicator: TA100, Metabolic Activation: RABBIT, NASAL, S-9, Method: STANDARD PLATE inactive; negative | Test System: AMES SALMONELLA TYPHIMURIUM, Strain/Indicator: TA100, Metabolic Activation: RAT, LIVER, S-9, AROCLOR 1254 (30%), Method: PREINCUBATION inactive; negative | Test System: AMES SALMONELLA TYPHIMURIUM, Strain/Indicator: TA100, Metabolic Activation: RAT, LUNG, S-9, Method: STANDARD PLATE inactive; negative | Test System: AMES SALMONELLA TYPHIMURIUM, Strain/Indicator: TA100, Metabolic Activation: RAT, NASAL, S-9, Method: STANDARD PLATE inactive; negative | Test System: AMES SALMONELLA TYPHIMURIUM, Strain/Indicator: TA100, Metabolic Activation: S-9, Method: PREINCUBATION inactive; negative | Test System: AMES SALMONELLA TYPHIMURIUM, Strain/Indicator: TA102, Metabolic Activation: NONE, Method: PREINCUBATION inactive; negative | Test System: AMES SALMONELLA TYPHIMURIUM, Strain/Indicator: TA102, Metabolic Activation: RAT LIVER S-9, AROCLOR, Method: PREINCUBATION inactive; negative | Test System: AMES SALMONELLA TYPHIMURIUM, Strain/Indicator: TA1535, Metabolic Activation: NONE, Method: PREINCUBATION inactive; negative | Test System: AMES SALMONELLA TYPHIMURIUM, Strain/Indicator: TA1535, Metabolic Activation: S-9, Method: PREINCUBATION inactive; negative | Test System: AMES SALMONELLA TYPHIMURIUM, Strain/Indicator: TA1535ER, Metabolic Activation: NONE, Method: STANDARD PLATE inactive; negative
active: End Point: IN VITRO MICRONUCLEUS, Test System: AHH-1 CELLS, Metabolic Activation: NONE active; positive | End Point: IN VITRO MICRONUCLEUS, Test System: MCL-5 CELLS, Metabolic Activation: NONE active; positive | Test System: AMES SALMONELLA TYPHIMURIUM, Strain/Indicator: TA98, Metabolic Activation: HAMSTER, LIVER, S-9, AROCLOR 1254 (30%), Method: PREINCUBATION active; positive | Test System: AMES SALMONELLA TYPHIMURIUM, Strain/Indicator: TA98, Metabolic Activation: NONE, Method: PREINCUBATION active; positive | Test System: AMES SALMONELLA TYPHIMURIUM, Strain/Indicator: TA98, Metabolic Activation: RAT LIVER S-9, AROCLOR, Method: PREINCUBATION active; positive | Test System: AMES SALMONELLA TYPHIMURIUM, Strain/Indicator: TA98, Metabolic Activation: RAT, LIVER, S-9, AROCLOR 1254, Method: STANDARD PLATE active; positive | Test System: AMES SALMONELLA TYPHIMURIUM, Strain/Indicator: TA98, Metabolic Activation: RAT, LIVER, S-9, KC500 OR PHENOBARBITAL, Method: LIQUID SUSPENSION active; positive | Test System: AMES SALMONELLA TYPHIMURIUM, Strain/Indicator: TA98, Metabolic Activation: RAT, LIVER, S-9, PHENOBARBITAL, Method: PREINCUBATION active; positive | Test System: AMES SALMONELLA TYPHIMURIUM, Strain/Indicator: TA98NR, Metabolic Activation: RAT LIVER S-9, AROCLOR, Method: PREINCUBATION active; positive | Test System: AMES SALMONELLA TYPHIMURIUM, Strain/Indicator: TA100, Metabolic Activation: HAMSTER, LIVER, S-9, AROCLOR 1254 (30%), Method: PREINCUBATION active; positive | Test System: AMES SALMONELLA TYPHIMURIUM, Strain/Indicator: TA100, Metabolic Activation: MOUSE, INTACT UROTHELIAL CELLS, Method: FLUCTUATION TEST active; positive | Test System: AMES SALMONELLA TYPHIMURIUM, Strain/Indicator: TA100, Metabolic Activation: MOUSE, KIDNEY, S-9, Method: PREINCUBATION active; positive | Test System: AMES SALMONELLA TYPHIMURIUM, Strain/Indicator: TA100, Metabolic Activation: MOUSE, LIVER, S-9, Method: PREINCUBATION active; positive | Test System: AMES SALMONELLA TYPHIMURIUM, Strain/Indicator: TA100, Metabolic Activation: RAT LIVER S-9, AROCLOR, Method: PREINCUBATION active; positive | Test System: AMES SALMONELLA TYPHIMURIUM, Strain/Indicator: TA100, Metabolic Activation: RAT, INTACT UROTHELIAL CELLS, Method: FLUCTUATION TEST active; positive | Test System: AMES SALMONELLA TYPHIMURIUM, Strain/Indicator: TA100, Metabolic Activation: RAT, LIVER, S-9, AROCLOR 1254, Method: PREINCUBATION active; positive | Test System: AMES SALMONELLA TYPHIMURIUM, Strain/Indicator: TA100, Metabolic Activation: RAT, LIVER, S-9, KC500 OR PHENOBARBITAL, Method: LIQUID SUSPENSION active; positive | Test System: AMES SALMONELLA TYPHIMURIUM, Strain/Indicator: TA100, Metabolic Activation: RAT, LIVER, S-9, PHENOBARBITAL, Method: PREINCUBATION active; positive | Test System: AMES SALMONELLA TYPHIMURIUM, Strain/Indicator: TA104, Metabolic Activation: RAT, LIVER, S-9, AROCLOR 1254, Method: PREINCUBATION active; positive | Test System: AMES SALMONELLA TYPHIMURIUM, Strain/Indicator: TA1530, Metabolic Activation: RAT, LIVER, S-9, PHENOBARBITAL, Method: PREINCUBATION active; positive | Test System: AMES SALMONELLA TYPHIMURIUM, Strain/Indicator: TA1530, Metabolic Activation: RAT, LIVER, S-9, Method: STANDARD PLATE active; positive | Test System: AMES SALMONELLA TYPHIMURIUM, Strain/Indicator: TA1535, Metabolic Activation: RAT, LIVER, HEPATOCYTES, Method: PREINCUBATION active; positive | Test System: AMES SALMONELLA TYPHIMURIUM, Strain/Indicator: TA1535, Metabolic Activation: RAT, LIVER, S-9, AROCLOR 1254, Method: PREINCUBATION active; positive | Test System: AMES SALMONELLA TYPHIMURIUM, Strain/Indicator: TA1535, Metabolic Activation: RAT, LIVER, S-9, AROCLOR, Method: PREINCUBATION active; positive | Test System: AMES SALMONELLA TYPHIMURIUM, Strain/Indicator: TA1535, Metabolic Activation: RAT, LIVER, S-9, SODIUM PHENOBARBITONE, Method: PREINCUBATION active; positive | Test System: AMES SALMONELLA TYPHIMURIUM, Strain/Indicator: TA1535, Metabolic Activation: RAT, LIVER, S-9, Method: PREINCUBATION active; positive | Test System: AMES SALMONELLA TYPHIMURIUM, Strain/Indicator: TA1975, Metabolic Activation: RAT, LIVER, S-9, AROCLOR 1254, Method: PREINCUBATION active; positive
